Experimental data taken from patent US9511052B2, “Mineralocorticoid receptor antagonists” (Merck Sharp & Dohme Corp., priority 2012, dated 2016).

Assays:
PK profile in rats = type: in vivo, rat; conditions: for bioavailability / clearance / half-life: rat, in vivo; for bioavailability: oral
[1] = Liver microsome stability, rhesus monkey; type: in vitro ADME; conditions: liver microsomes, read-out: Liver Microsome Stability (t1/2)
[2] = target: T1, full-length human Mineralocorticoid Receptor (MR) (Homo sapiens, UniProt P08235); experiment: human MR NH Pro assay (PathHunter Protein:Protein interaction assay), MR antagonism; type: cell-based; conditions: IP = inflection point of the dose-response curve; CHO-K1 cells overexpressing human MR, aldosterone about 0.3 nM to about 1 nM, 6 hours at 37° C.
T1 construct: host or cells: PathHunter CHO-K1 MR cells
T1 sequence (P08235 1-984): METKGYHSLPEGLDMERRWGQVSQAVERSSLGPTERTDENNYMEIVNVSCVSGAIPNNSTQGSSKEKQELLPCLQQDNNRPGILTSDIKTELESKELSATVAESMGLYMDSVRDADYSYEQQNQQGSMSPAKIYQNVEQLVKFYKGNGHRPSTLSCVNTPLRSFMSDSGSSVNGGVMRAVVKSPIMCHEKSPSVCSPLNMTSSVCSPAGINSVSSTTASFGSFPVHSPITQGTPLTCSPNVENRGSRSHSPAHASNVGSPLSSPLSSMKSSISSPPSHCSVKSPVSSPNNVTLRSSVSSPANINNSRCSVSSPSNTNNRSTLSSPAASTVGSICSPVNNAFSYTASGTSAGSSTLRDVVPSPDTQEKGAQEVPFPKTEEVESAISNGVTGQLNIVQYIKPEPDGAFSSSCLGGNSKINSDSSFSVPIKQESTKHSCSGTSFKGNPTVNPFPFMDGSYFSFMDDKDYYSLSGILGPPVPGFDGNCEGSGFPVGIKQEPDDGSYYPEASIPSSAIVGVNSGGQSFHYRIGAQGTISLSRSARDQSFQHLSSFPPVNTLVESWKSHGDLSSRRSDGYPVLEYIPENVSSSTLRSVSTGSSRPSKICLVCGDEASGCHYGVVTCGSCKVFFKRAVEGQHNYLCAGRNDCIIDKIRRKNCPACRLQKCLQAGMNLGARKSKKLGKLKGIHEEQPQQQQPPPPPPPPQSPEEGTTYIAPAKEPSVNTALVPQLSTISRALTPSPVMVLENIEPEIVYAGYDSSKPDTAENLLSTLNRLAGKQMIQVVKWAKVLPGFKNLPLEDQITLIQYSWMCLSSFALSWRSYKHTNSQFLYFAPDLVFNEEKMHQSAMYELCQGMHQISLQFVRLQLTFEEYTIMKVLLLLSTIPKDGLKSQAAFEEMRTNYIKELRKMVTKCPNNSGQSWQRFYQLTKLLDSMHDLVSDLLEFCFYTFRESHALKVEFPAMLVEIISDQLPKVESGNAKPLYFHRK
Source text: The activity of the compounds of the present invention regarding mineralocorticoid receptor antagonism can be evaluated using the following assay.
Assessment of MR Potency in HMR NH Pro Assay
The human MR NH Pro assay is a commercially available PathHunter™ Protein:Protein interaction assay (DiscoveRx; http://www.discoverx.com/nhrs/prod-nhrs.php) that measures the ability of compounds to antagonize full-length human Mineralocorticoid Receptor (MR) binding to a coactivator peptide.
Stock solution was prepared at 10 μM in DMSO and stored at −20° C. for assay, dilute in assay media to 1.8 or 6 nM (6× of final concentration=about 0.3 nM to about 1.0 nM)
5. Cell line: PathHunter CHO-K1 MR cells Cat #93-0456C2, Lot No: 09B0913, from operation liquid nitrogen stock.
6. Control Antagonist: Spironolactone: Sigma #S-3378 and Eplerenone Sigma #107724-20-9 (10 mM stock concentration also prepared in DMSO and stored at −20° C.).
1. Cells are grown in F12+FBS+Hygromycin+pen/strep+Genetin
2. Cells are collected with 0.05% trypsin and the cell suspension is spun and resuspended in a volume of F12+1.5% CD-FBS and counted.
3. The cells concentration was adjusted to 4×10^5 cells/mL.
4. Cells were (25 μL/well) added to the wells of a 384 well plate.
5. The plate was then incubated at 37° C. over night in a humidified incubator with 5% CO2.
6. Test compounds were titrated starting at 4.4 mM, 10-point titration in 1:3 dilution.
Protocol for 384 well plate format: 6 hr treatment:
1. 10K exponentially growing cells/well (25 μL) were resuspended in assay media and plated into each well using the Multidrop (Thermo Electron) (use white wall, clear bottom assay plates (Costar #3570) and incubated overnight at 37° C., 5% CO2.
2. 0.25 μL 120× test compound (final DMSO concentration should be <1%) was added to each well n=2, 10 point titrations starting at 36.7 μM final concentration.
4. 5 μL of assay media was added to all wells in column 23 and 24.
5. Cells were then incubated for 6 hrs at 37° C., 5% CO2.
6. 15 μL 3× DiscoveRx detection reagent was then added to each well.
7. Plates were incubated for 1 hour at room temperature in the dark.
8. Plates were read on Envision (PerkinElmer) luminesence plate reader and analyzed using ADA.

[3] = Hepatocyte stability, dog; type: in vitro ADME; conditions: hepatocytes, read-out: Hepatocyte Stability (t1/2)
[4] = Hepatocyte stability, rhesus monkey; type: in vitro ADME; conditions: hepatocytes, read-out: Hepatocyte Stability (t1/2)
[5] = Liver microsome stability, rat; type: in vitro ADME; conditions: liver microsomes, read-out: Liver Microsome Stability (t1/2)
[6] = Hepatocyte stability, rat; type: in vitro ADME; conditions: hepatocytes, read-out: Hepatocyte Stability (t1/2)
[7] = Liver microsome stability, dog; type: in vitro ADME; conditions: liver microsomes, read-out: Liver Microsome Stability (t1/2)
[8] = Hepatocyte stability, human; type: in vitro ADME; conditions: for half-life: human, hepatocytes, read-out: Hepatocyte Stability (t1/2)
[9] = Metabolic stability in liver microsome and hepatocytes of multiple animal species (overall statement); type: in vitro ADME
[10] = Liver microsome stability, human; type: in vitro ADME; conditions: for Liver Microsome Stability (t1/2): Human; for half-life: human, liver microsomes, read-out: Liver Microsome Stability (t1/2)

Structure (SMILES) | Cl (PK profile in rats) [mL/min/kg] | PK profile in rats (in words) (PK profile in rats) | t1/2 (PK profile in rats) [h] | AUCN po (PK profile in rats) [µM·kg·h/mg] | bioavailability (PK profile in rats) [%] | half-life [1] [min] | IC50 [2] [nM] | half-life [3] [min] | half-life [4] [min] | half-life [5] [min] | half-life [6] [min] | half-life [7] [min] | half-life [8] [min] | metabolic stability in liver microsome and hepatocytes of multiple animal species (in words) [9] | Liver Microsome Stability (t1/2) [10] [min] | clearance (PK profile in rats) [mL/min/kg] | half-life (PK profile in rats) [min] | half-life [10] [min] | Hepatocyte Stability (t1/2) ([8]; Human) [min]
CS(=O)(=O)Nc1cccc2c1cnn2C(CC(F)F)(C(N)=O)c1ccc(C(F)(F)F)cc1 (single isomer, unassigned) [Compound 46, 4,4-difluoro-2-(4-(methylsulfonamido)-1H-indazol-1-yl)-2-(4-(trifluoromethyl)phenyl)butanamide] |  | good PK profile |  | 1.9 | 31 | 92 | 76 | > 90 | > 90 | 97 | > 90 | 135 | > 90 | good metabolic stability |  | 6.2 | 252 | 138 | 
CCC(C(N)=O)(c1ccc(C(F)(F)F)cc1)n1ncc2c(NS(C)(=O)=O)cccc21 (single isomer, unassigned) [Compound 12, 2-(4-(methylsulfonamido)-1H-indazol-1-yl)-2-(4-(trifluoromethyl)phenyl) butanamide] |  |  |  |  |  |  | 139 |  |  |  |  |  |  |  |  |  |  |  | 
CCC(O)C(CC(F)F)(c1ccc(C(F)(F)F)cc1)n1ncc2c(NS(C)(=O)=O)cccc21 (single isomer, unassigned) [Compound 41, N-(1-(1,1-difluoro-4-hydroxy-3-(4-(trifluoromethyl)phenyl)hexan-3-yl)-1H-indazol-4-yl)methanesulfonamide] |  |  |  |  |  |  | 543 |  |  |  |  |  |  |  |  |  |  |  | 
CC(O)C(CC(F)F)(c1ccc(C(F)(F)F)cc1)n1ncc2c(NS(C)(=O)=O)cccc21 (single isomer, unassigned) [Compound 36, N-(1-(1,1-difluoro-4-hydroxy-3-(4-(trifluoromethyl)phenyl)pentan-3-yl)-1H-indazol-4-yl)methanesulfonamide] |  |  |  |  |  |  | 95 |  |  |  |  |  |  |  |  |  |  |  | 

Stronger by IC50 [2], values ahead:

Cl (PK profile in rats) [mL/min/kg] | PK profile in rats (in words) (PK profile in rats) | t1/2 (PK profile in rats) [h] | AUCN po (PK profile in rats) [µM·kg·h/mg] | bioavailability (PK profile in rats) [%] | half-life [1] [min] | IC50 [2] [nM] | half-life [3] [min] | half-life [4] [min] | half-life [5] [min] | half-life [6] [min] | half-life [7] [min] | half-life [8] [min] | metabolic stability in liver microsome and hepatocytes of multiple animal species (in words) [9] | Liver Microsome Stability (t1/2) [10] [min] | clearance (PK profile in rats) [mL/min/kg] | half-life (PK profile in rats) [min] | half-life [10] [min] | Hepatocyte Stability (t1/2) ([8]; Human) [min] | Structure (SMILES)
24 | good PK profile | 5.3 | 1.3 | 76 | 61 | 4 | 48 | > 90 | 61 | > 90 | 65 | > 90 | good metabolic stability | 72 |  |  |  |  | CCC(O)C(CC)(c1ccc(C(F)(F)F)cc1)n1ncc2c(NS(C)(=O)=O)cccc21 (single isomer, unassigned) [Compound 9, N-(1-(4-hydroxy-3-(4-(trifluoromethyl)phenyl)hexan-3-yl)-1H-indazol-4-yl)methanesulfonamide]
 | good PK profile |  | 2.7 | 98 |  | 50 |  |  |  |  |  |  | good metabolic stability |  | 14 | 420 |  |  | CC(O)C(CC(F)F)(c1ccc(C(F)(F)F)cc1)n1ncc2c(NS(C)(=O)=O)cccc21 (single isomer, unassigned) [Compound 35, N-(1-(1,1-difluoro-4-hydroxy-3-(4-(trifluoromethyl)phenyl)pentan-3-yl)-1H-indazol-4-yl)methanesulfonamide]
 | good PK profile |  | 4.0 | 92 | 67 | 51 | 73 | > 90 | 234 | > 90 | 128 | 90 | excellent metabolic stability |  | 8.4 | 312 | 156 |  | CCC(c1ccc(C(F)(F)F)cc1)(C(C)O)n1ncc2c(NS(C)(=O)=O)cc(F)cc21 (single isomer, unassigned) [Compound 31, N-(6-fluoro-1-(2-hydroxy-3-(4-(trifluoromethyl)phenyl)pentan-3-yl)-1H-indazol-4-yl)methanesulfonamide]
 | good PK profile |  | 1.0 | 49 | 23 | 7 | 45 | 56 | 53 | > 90 | 67 |  | good metabolic stability | 48 | 18 | 216 |  | 69 | CCC(c1ccc(Br)cc1)(C(C)O)n1ncc2c(NS(C)(=O)=O)cccc21 (single isomer, unassigned) [Compound 2, N-(1-(3-(4-bromophenyl)-2-hydroxypentan-3-yl)-1H-indazol-4-yl) methanesulfonamide]
 |  |  |  |  | 123 | 66 | 79 | > 90 | 122 | > 90 | 58 | > 90 |  |  |  |  | 86 |  | CC(O)C(CC(F)F)(c1ccc(C(F)(F)F)cc1)n1ncc2c(NS(C)(=O)=O)cccc21 (single isomer, unassigned) [Compound 37, N-(1-(1,1-difluoro-4-hydroxy-3-(4-(trifluoromethyl)phenyl)pentan-3-yl)-1H-indazol-4-yl)methanesulfonamide]
 |  |  |  |  |  | 12 |  |  |  |  |  |  |  |  |  |  |  |  | CCC(c1ccc(C(F)(F)F)cc1)(C(O)C(F)F)n1ncc2c(NS(=O)(=O)CC)cc(F)cc21 (single isomer, unassigned) [Compound 54, N-(1-(1,1-difluoro-2-hydroxy-3-(4-(trifluoromethyl)phenyl)pentan-3-yl)-6-fluoro-1H-indazol-4-l)ethanesulfonamide]
